The supplement of paper PMC10307832

Tests used:
Experiment in all cases: relative viability (nuclei count vs DMSO), 5 days (fraction); higher = more cells survive
[1] = compound: CC1=C(C(=O)N2C=CSC2=N1)CCN3CCC(=C(C4=CC=CC=C4)C5=CC=C(C=C5)F)CC3
In short: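 Only plates meeting two conditions passed: control CV below 25% and at least one doubling. Lung cancer cell lines, kept overnight at 37 °C in 1536-well plates, were pinned with five library-drug doses (not always all listed) √10 apart on vehicle-anchored plates and grown 5 days without medium change. A one-step fix, permeabilisation and Hoechst stain preceded 4× imaging and MetaXpress nuclear counting. Viability equals treated-well nuclei divided by vehicle-well nuclei, as the median over plates.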

[2] = compound: CC1=C(C(=O)N2C=CSC2=N1)CCN3CCC(=C(C4=CC=CC=C4)C5=CC=C(C=C5)F)CC3 + Cc1cc(Nc2cc(N3CCN(C)CC3)nc(Sc3ccc(NC(=O)C4CC4)cc3)n2)n[nH]1 [Tozasertib] (partner 0.1 µM)
In short: (§1)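 Lung cancer cell lines in 1536-well plates were dosed by pin tool the day after seeding, either with one drug alone or with a fixed anchor-drug dose plus five library-drug doses (not always all listed) in √10 steps. After 5 days, cells were fixed and their nuclei stained in one step (final 0.05% Triton X-100, 1% formaldehyde, 1 ug/ml Hoechst), then counted on 4× images. Relative viability is the nuclei count in treated wells divided by that in vehicle wells. Values are medians of duplicate plates.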

[3] = compound: CC1=C(C(=O)N2C=CSC2=N1)CCN3CCC(=C(C4=CC=CC=C4)C5=CC=C(C=C5)F)CC3 + N=C(N)NC(=N)NCCc1ccccc1 [Phenformin] (partner 250 µM)
In short: as §1

[4] = compound: CC1=C(C(=O)N2C=CSC2=N1)CCN3CCC(=C(C4=CC=CC=C4)C5=CC=C(C=C5)F)CC3 + CC1(C)CCC(c2ccc(Cl)cc2)=C(CN2CCN(c3ccc(C(=O)NS(=O)(=O)c4ccc(N[C@H](CCN5CCOCC5)CSc5ccccc5)c(S(=O)(=O)C(F)(F)F)c4)cc3)CC2)C1 [Navitoclax] (partner 0.5 µM)
In short: as §1

Cell Line	relative viability ([1]; 0.08 µM)	relative viability ([1]; 0.253 µM)	relative viability ([1]; 0.8 µM)	relative viability ([1]; 2.53 µM)	relative viability ([1]; 8 µM)	relative viability ([2]; first compound 0.08 µM)	relative viability ([2]; first compound 0.253 µM)	relative viability ([2]; first compound 0.8 µM)	relative viability ([2]; first compound 2.53 µM)	relative viability ([2]; first compound 8 µM)	relative viability ([3]; first compound 0.08 µM)	relative viability ([3]; first compound 0.253 µM)	relative viability ([3]; first compound 0.8 µM)	relative viability ([3]; first compound 2.53 µM)	relative viability ([3]; first compound 8 µM)	relative viability ([4]; first compound 0.08 µM)	relative viability ([4]; first compound 0.253 µM)	relative viability ([4]; first compound 0.8 µM)	relative viability ([4]; first compound 2.53 µM)	relative viability ([4]; first compound 8 µM)
LU99A	1.13	0.99	0.88	0.972	0.89	0.299	0.272	0.268	0.307	0.197	0.777	0.846	0.767	0.841	0.658	0.919	0.867	0.734	0.929	0.631
LXF-289	0.952	1.1	1.03	1.03	0.893	0.219	0.265	0.16	0.193	0.155	0.463	0.542	0.508	0.482	0.376	0.917	1.19	0.947	0.97	0.816
NCI-H23	1.06	1.06	0.857	0.964	0.718	0.365	0.386	0.214	0.307	0.316	0.757	0.668	0.782	0.773	0.564	0.722	0.862	0.776	0.863	0.489
NCI-H322M	0.89	0.91	0.877	1.09	1.08	0.487	0.468	0.443	0.561	0.529	0.745	0.785	0.737	0.773	0.873	0.987	1.29	1.34	1.36	0.889
NCI-H441	0.736	1.06	1.15	1.05	0.593	0.67	0.754	0.657	0.688	0.498	0.797	0.759	0.918	0.737	0.667		0.694	0.686	0.638	0.371
NCI-H460	0.923	0.956	1.06	1.04	0.567	0.272	0.57	0.392	0.409	0.252	0.474	0.562	0.611	0.548	0.113	0.787	0.957	1.55	1.56	0.0629
NCI-H520	0.981	0.974	1.03	1.05	0.657	0.514	0.435	0.439	0.464	0.401	0.784	0.643	0.836	0.539	0.468	1.04	0.939	1.21	1.35	0.701
NCI-H596	1.02	0.964	0.981	0.952	0.852	0.757	0.757	1.14	0.877	0.516	0.702	0.826	0.915	0.74	0.578	0.85	1.17	1.04	1.1	0.556
NCI-H647	0.996	0.894	0.877	1.09	0.462	0.267		0.437	0.105	0.141	0.573	0.644	0.54	0.438	0.348	1.12	1.13	1.11	1.2	0.476
NCI-H727	0.712	1.03	0.896	1.06	0.687	0.511	0.589	0.625	0.739	0.598	0.593	0.55	0.481	0.464	0.47	0.346	0.481	0.444	0.48	0.383
NCI-H838	0.779	0.998	0.987	1.22	0.704	0.267	0.286	0.27	0.266	0.244	0.629	0.533	0.569	0.576	0.464	0.986	1.08	1.15	1.62	0.494
NCI-H1355	0.961	1	1.04	0.981	0.757	0.623	0.544	0.52	0.496	0.532	0.428	0.442	0.441	0.427	0.391	0.976	0.984	0.996	1.09	0.787
NCI-H1395	0.953	0.992	0.762	0.992	0.872	0.809	0.868	0.697	0.765	0.686	0.511	0.432	0.435	0.453	0.432	1.19	1.46	1.02	1.05	1.05
NCI-H1437	0.918	1.02	1.02	1.09	0.775	0.399	0.35	0.433	0.43	0.36	0.303	0.362	0.334	0.288	0.308		0.924	1.09	1.44	0.693
NCI-H1650	0.794	0.982	0.875	0.997	0.642	0.402	0.428	0.463	0.372	0.363	0.494	0.345	0.383	0.58	0.314	0.992	1.2	1.16	1.44	0.865
NCI-H1651	0.823	0.968	0.976	1.01	0.72	0.689	0.611	0.683	0.793	0.379	0.341	0.321	0.352	0.304	0.283	0.984	0.654	1.01	1.29	0.404
